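A five-concentration, 48-hour dose response in 96-well plates underlies each endpoint, interpolated linearly between surrounding concentrations. GI50: concentration for 50% inhibition of growth.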 Active and inactive are the calls of the source. No stated cut-off is given here; in the data, active = GI50 up to about 1.1 µM and inactive = higher. Where only a bound is given, the exact number is not on record here.

Some test systems named below: HOP-62; HCT-116; A498; CCRF-CEM; UACC-62; U-251; KM12; M14; SK-MEL-2; HCC 2998; SW-620; SF-295; NCI-H522; RXF 393; CAKI-1; ACHN; OVCAR-8; SF-268; SF-539.
What all share (test): NCI-60 cell line screen, 48 h

Turning to `CC1(C)C2C/C(=C\c3ccccc3)C(=O)C1C2` (configuration not stated), the GI50 is > 100 µM (inactive) in the experiment on HOP-62; 90.4 µM (inactive) with HCT-116; > 100 µM (inactive) with A498; > 100 µM (inactive) in the experiment on CCRF-CEM; > 100 µM (inactive) with UACC-62; > 100 µM (inactive) in the experiment with U-251. The GI50 in the experiment with KM12, with M14, in the experiment with SK-MEL-2, with HCC 2998, with SW-620 and in the experiment on SF-295 was > 100 µM (inactive) throughout. For the same molecule, the GI50 in the experiment on NCI-H522 is 40.9 µM (inactive); in the experiment on RXF 393, 27.6 µM (inactive); in the experiment on CAKI-1, > 100 µM (inactive); in the experiment with ACHN, > 100 µM (inactive); with OVCAR-8 it was > 100 µM (inactive); with SF-268, 79.8 µM (inactive). Further, the GI50 in the experiment on SF-539 was > 100 µM (inactive).

As to `CCOC(OC(C)=O)[C@@H]1C=C[C@H](C)N(c2ccc([N+](=O)[O-])cc2)O1` (some centres not stated), the GI50 in the experiment with HOP-62 was 10.7 µM (inactive); in the experiment with HCT-116 it was 1.25 µM (inactive); with A498, 27.6 µM (inactive); in the experiment with CCRF-CEM, 2.29 µM (inactive); in the experiment with UACC-62 it was 2.54 µM (inactive); in the experiment with U-251 it was 2.74 µM (inactive). Besides, the GI50 with KM12 is 2.5 µM (inactive); with M14, 3.06 µM (inactive); in the experiment with SK-MEL-2, 4.26 µM (inactive); in the experiment with HCC 2998 it was 11.9 µM (inactive); in the experiment with SW-620, 2.46 µM (inactive); in the experiment on SF-295, 11.4 µM (inactive). In addition, the GI50 was 3.16 µM (inactive) in the experiment with NCI-H522; 0.759 µM (active) with RXF 393; 7.8 µM (inactive) with CAKI-1; 5.13 µM (inactive) with ACHN; 2.02 µM (inactive) in the experiment with OVCAR-8; 3.13 µM (inactive) in the experiment on SF-268. Also, the GI50 in the experiment on SF-539 was 2.54 µM (inactive).

As for `COc1cc([C@@H]2c3cc4c(cc3[C@@H](NCc3ccccc3F)C3COC(=O)[C@@H]32)OCO4)cc(OC)c1O` (some centres not stated), the GI50 with HOP-62 was 1.93 µM (inactive); in the experiment on HCT-116, 5.27 µM (inactive); with A498, 5 µM (inactive); in the experiment on CCRF-CEM, 1.49 µM (inactive); with UACC-62, 0.463 µM (active); in the experiment with U-251, 1.89 µM (inactive). For the same molecule, the GI50 in the experiment on KM12 was 3.99 µM (inactive); in the experiment on M14 it was 3.01 µM (inactive); in the experiment with SK-MEL-2, 23.4 µM (inactive); with HCC 2998, 11.8 µM (inactive); in the experiment with SW-620, 0.851 µM (active); with SF-295, 1.43 µM (inactive). Moreover, the GI50 in the experiment with NCI-H522 was 0.361 µM (active); in the experiment on RXF 393, 5.18 µM (inactive); with CAKI-1 it was 1.91 µM (inactive); with ACHN, 1.11 µM (active); in the experiment with OVCAR-8, 6.03 µM (inactive); in the experiment on SF-268, 4.69 µM (inactive). The GI50 in the experiment with SF-539 was 1.47 µM (inactive).

Turning to `CC1=C(C(=O)CC(=O)C(=O)Nc2ccccc2C(F)(F)F)Sc2ccccc2N1`, the GI50 in the experiment on HOP-62 is 33.9 µM (inactive); in the experiment on HCT-116 it was 34.8 µM (inactive); in the experiment on A498, > 100 µM (inactive); in the experiment on CCRF-CEM, 49.7 µM (inactive); with UACC-62, 38.5 µM (inactive); in the experiment on U-251, 64.9 µM (inactive). Moreover, the GI50 was 39.1 µM (inactive) in the experiment with KM12; 52.4 µM (inactive) in the experiment on M14; > 100 µM (inactive) with SK-MEL-2; 41.1 µM (inactive) in the experiment with HCC 2998; 33.7 µM (inactive) in the experiment with SW-620; 47.4 µM (inactive) in the experiment with SF-295. In addition, the GI50 with NCI-H522 is 24.5 µM (inactive); in the experiment with RXF 393, 15.8 µM (inactive); in the experiment on CAKI-1, 53.2 µM (inactive); in the experiment on ACHN it was 73.3 µM (inactive); in the experiment with OVCAR-8 it was 50 µM (inactive); in the experiment with SF-268 it was 15.7 µM (inactive). In addition, the GI50 with SF-539 was 31.2 µM (inactive).

For `CC(=O)NC(CCCNCc1ccccc1)C(=O)NCc1ccccc1` (configuration not stated), the GI50 in the experiment on HOP-62, in the experiment with HCT-116, in the experiment with A498, in the experiment with CCRF-CEM, with UACC-62 and in the experiment on U-251 was > 100 µM (inactive) in each case. Further, the GI50 with KM12, with M14, with SK-MEL-2, in the experiment on HCC 2998, with SW-620 and with SF-295 was > 100 µM (inactive) each time. Moreover, the GI50 with NCI-H522, in the experiment on RXF 393, in the experiment on CAKI-1, in the experiment on ACHN, in the experiment on OVCAR-8 and in the experiment on SF-268 was > 100 µM (inactive) each time. Moreover, the GI50 with SF-539 is > 100 µM (inactive).

For `CC(=O)CC(=O)Nc1ccccc1[N+](=O)[O-]`, the GI50 in the experiment on HOP-62, with HCT-116, with A498, in the experiment with CCRF-CEM, in the experiment on UACC-62 and with U-251 was > 100 µM (inactive) each time. The GI50 in the experiment on KM12, in the experiment with M14, with SK-MEL-2, in the experiment on HCC 2998, in the experiment on SW-620 and in the experiment with SF-295 was > 100 µM (inactive) each time. Further, the GI50 with NCI-H522, in the experiment with RXF 393, with CAKI-1, with ACHN, with OVCAR-8 and in the experiment on SF-268 was > 100 µM (inactive) each time. The GI50 with SF-539 is > 100 µM (inactive).

`O=c1c2cc(Br)cc(Br)c2nc(CCCl)n1CCO`: the GI50 in the experiment on HOP-62 is > 100 µM (inactive); in the experiment with HCT-116 it was > 100 µM (inactive); with A498, 25 µM (inactive); in the experiment with CCRF-CEM, 41 µM (inactive); in the experiment with UACC-62, 60.8 µM (inactive); in the experiment with U-251 it was 67.1 µM (inactive). The GI50 is > 100 µM (inactive) in the experiment on KM12; 97.7 µM (inactive) in the experiment with M14; > 100 µM (inactive) with SK-MEL-2; > 100 µM (inactive) with HCC 2998; > 100 µM (inactive) in the experiment with SW-620; 88.3 µM (inactive) in the experiment with SF-295. Also, the GI50 was 62.4 µM (inactive) in the experiment with NCI-H522; 47.4 µM (inactive) in the experiment on RXF 393; 91 µM (inactive) with CAKI-1; 60.7 µM (inactive) with ACHN; > 100 µM (inactive) with OVCAR-8; 47.1 µM (inactive) in the experiment with SF-268. For the same molecule, the GI50 in the experiment with SF-539 is 81.3 µM (inactive).

Turning to `CS(=O)(=O)c1nc(N)nc2nc[nH]c12`, the GI50 in the experiment on HOP-62, in the experiment with HCT-116, with A498, in the experiment with CCRF-CEM, with UACC-62 and in the experiment with U-251 was > 100 µM (inactive) throughout. Besides, the GI50 in the experiment with KM12, in the experiment on M14, in the experiment with SK-MEL-2, with HCC 2998, in the experiment on SW-620 and with SF-295 was > 100 µM (inactive) each time. Further, the GI50 in the experiment on NCI-H522 is 74.8 µM (inactive); in the experiment with RXF 393, > 100 µM (inactive); in the experiment on CAKI-1, > 100 µM (inactive); with ACHN it was > 100 µM (inactive); with OVCAR-8 it was > 100 µM (inactive); with SF-268, > 100 µM (inactive). Besides, in the experiment with SF-539, the GI50 was > 100 µM (inactive).

The values are drawn from ChEMBL document CHEMBL1201862, “PubChem BioAssay data set” (2004).
